The text below walks through data of patent USRE43932E1, “Crystal modification of a N-phenyl-2-pyrimidineamine derivative, processes for its manufacture and its use” (Novartis AG, priority 1997, dated 2013).

Series [1] is described as follows: Flow properties of the crystals. The format is physicochemical. Conditions: for solid dosage forms.
For series [2], the system named is tracheal allogenic transplants. As to conditions: 50 mg/kg combined with CsA 1 mg/kg s.c. The text has this: In contrast to patients without OB, those with OB often show an elevated PDGF concentration in bronchoalveolar lavage fluids.
In series [3] the test system is denuded left common carotid artery. The series can be described thus: Rat carotid artery denudation, cell counts and BrdU labelling. The format is in vivo, male Wistar rats. A general note: Uptake of a labelled nucleoside into DNA is a usual measure of proliferation.
The next series deals with denuded thoracic aorta. Put plainly: Rat thoracic aorta denudation, cell counts. The format is in vivo, male Wistar rats. As to conditions: rats, 50 mg/kg i.p. per day.
The test system of a further series is PDGF receptor. Put plainly: PDGF-stimulated receptor tyrosine kinase activity in PDGF receptor immune complexes of BALB/c 3T3 cells. The format is biochemical. Here is the method: The inhibition of PDGF-stimulated receptor tyrosine kinase activity in vitro is measured in PDGF receptor immune complexes of BALB/c 3T3 cells, as described by E. Andrejauskas-Buchdunger and U. Regenass in Cancer Research 52, 5353-5358 (1992).

The test system of series [4] is angiogenic effect of growth factors (VEGF, PDGF, bFGF). Put plainly: Subcutaneous agar chamber angiogenesis model with growth factor. The format is in vivo, mice (C57 BL/6). Conditions: mice, oral dose of 50 mg/kg once daily, chambers removed after 5 days. Here is the method: Dosing is started one day before implantation of the chambers. The chambers are removed after 5 days. The angiogenic efficacy is quantified by measuring both the vascularised tissue which has grown around the implant and the blood content of this tissue (external blood). The blood is determined by measuring the haemoglobin.

As for `CS(=O)(=O)O.Cc1ccc(NC(=O)c2ccc(CN3CCN(C)CC3)cc2)cc1Nc1nccc(-c2cccnc2)n1` [α-crystal form], the Flow properties result in series [1] is “unfavourable”.

Consider `CS(=O)(=O)O.Cc1ccc(NC(=O)c2ccc(CN3CCN(C)CC3)cc2)cc1Nc1nccc(-c2cccnc2)n1` [β-crystal form], for which the Flow properties entry in series [1] is listed as “substantially more favourable than those of the α-crystal form”. Besides, the “Effect of combination with CsA” value in series [2] is recorded as “synergism”. Further, the “Absolute number of BrdU-labelled cells in the intima, media, and adventitia” value in series [3] (first two labelling periods (0-72 and 72-96 h)) was “slight decrease”. The “Number of BrdU-labelled cells in all compartments” value in series [3] (labelling after 93-96 h) is reported as “decrease”. In addition, in series [3] (rats, 50 mg/kg i.p. per day, 4 days after denudation), the “Cell count for smooth-muscle cells in the carotid” value is “significant decrease”. In series [3] (rats, 50 mg/kg i.p. per day, carotid denudation), the “Cell count in the adventitia and the media” value was “significant reduction”. Besides, the “Number of smooth-muscle cells in aorta-denuded animals” value with denuded thoracic aorta is on record as “Decreases”.

Take `Cc1ccc(NC(=O)c2ccc(CN3CCN(C)CC3)cc2)cc1Nc1nccc(-c2cccnc2)n1` [compound of formula I]: in the series with PDGF receptor, the “PDGF-dependent acellular receptor phosphorylation” value is “inhibits”. For the same molecule, in series [4], the “Angiogenic effect of growth factors (VEGF, PDFG, bFGF)” value is on record as “inhibits”.
